Results on one compound are retold here after patent publication US8883827B2, “Azole derivatives as WTN pathway inhibitors” (Oslo University Hospital HF, priority 2009, dated 2014).

pIC50: −log10 of the molar value.

The test system of test [1] is canonical Wnt signaling. Nature of the test: IC50 in STF/REN HEK293 cells, 50% Wnt3a-CM. In kind it is cell-based. The settings on record: Homo sapiens; STF/REN HEK293, 50% Wnt3a-CM, 24 h. An outline of the steps: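 HEK293 cells carrying STF/REN reporters seeded at 80,000/well on poly-L-lysine; after 24 h, exposed 24 h to compound in 50% Wnt3a-conditioned medium. Firefly and Renilla luciferase measured by Dual-Glo; IC50 fitted to a Langmuir binding isotherm.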

Test [2] deals with TNF-α pathway. Nature of the test: NF-κB-Luciferase reporter in HEK293 cells with rTNF-α. Type of test: cell-based. The settings on record: 1 or 10 μM, 24 h, 10 ng/ml rTNF-α. An excerpt:
2) HEK293 cells transiently transfected with a NF-κB-Luciferase reporter (NF-κB-Luc—purchased from Promega).

The test system of test [3] is SW480 cells. In words: MTS cell growth assay (Example 27). In kind it is cell-based. The settings on record: Homo sapiens, 72 h, read-out: IC50, reduction of proliferation. Here is the method:
Thus, the effect of compound No. 1 on cell growth was tested in SW480 cell lines using MTS analysis (MTS is the colorimetric substrate 3-(4,5-dimethylthiazol-2-yl)-5-(3-carboxymethoxyphenyl)-2-(4-sulfophenyl)-2H-tetrazolium).
3000 cells were seeded on 96 well plates in quadruplicates for each sample. The following day, cell culture medium was mixed with compound No. 1 in various concentrations or with 0.5% DMSO vehicle (control) and added to the wells.
Eight wells of seeded control cells, defining incubation time 0 (t0), were incubated with 20 μl substrate in 100 μl phenol-free D-MEM (Invitrogen) for 3 hours, as described in the CellTiter 96® AQueous Non-Radioactive Cell Proliferation Assay (MTS) protocol (Promega). The A490 value was recorded.
Samples were measured after 72 hours. The following formula was used to determine the single well relative A490 sample values: ((Sample A490−Average A490 to)×100)/(Average A490 0.5% DMSO control−Average A490 t0).

Test [4] has as its target T1, DUSP22(h) (Homo sapiens, UniProt Q9NRW4).
T1 construct: purchased Millipore (KinaseProfiler service)
In words: Phosphatase screen. In kind it is biochemical. The settings on record: 0.1% DMSO control = 100%.

Test [5] deals with T2, CK1γ1(h) (Homo sapiens, UniProt Q9HCP0).
T2 construct: purchased Millipore (KinaseProfiler service)
In words: Kinase screen. The settings on record: 0.1% DMSO control = 100%. Type of test: biochemical.

Test [6] has as its target T3, PKCθ(h) (Homo sapiens, UniProt Q04759).
T3 construct: purchased Millipore (KinaseProfiler service)
Nature of the test: Kinase screen. In kind it is biochemical. The settings on record: 0.1% DMSO control = 100%.

T1 sequence (Q9NRW4 whole entry): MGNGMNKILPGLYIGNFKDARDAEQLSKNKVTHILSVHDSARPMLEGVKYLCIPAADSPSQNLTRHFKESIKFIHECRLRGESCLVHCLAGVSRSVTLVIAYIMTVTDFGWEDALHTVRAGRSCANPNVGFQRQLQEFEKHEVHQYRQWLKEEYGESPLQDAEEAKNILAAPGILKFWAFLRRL
T2 sequence (Q9HCP0 whole entry): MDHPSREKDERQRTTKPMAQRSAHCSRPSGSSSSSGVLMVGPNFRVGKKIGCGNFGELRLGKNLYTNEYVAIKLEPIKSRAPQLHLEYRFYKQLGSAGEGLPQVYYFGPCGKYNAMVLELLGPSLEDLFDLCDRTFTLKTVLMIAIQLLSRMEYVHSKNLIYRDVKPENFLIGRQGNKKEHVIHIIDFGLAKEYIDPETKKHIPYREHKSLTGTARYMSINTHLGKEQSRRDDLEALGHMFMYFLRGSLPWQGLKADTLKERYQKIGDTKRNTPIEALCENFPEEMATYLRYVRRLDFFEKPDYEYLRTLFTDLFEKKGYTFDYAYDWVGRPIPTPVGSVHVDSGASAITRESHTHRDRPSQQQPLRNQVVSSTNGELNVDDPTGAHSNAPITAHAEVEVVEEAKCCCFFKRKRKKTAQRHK
T3 sequence (Q04759 whole entry): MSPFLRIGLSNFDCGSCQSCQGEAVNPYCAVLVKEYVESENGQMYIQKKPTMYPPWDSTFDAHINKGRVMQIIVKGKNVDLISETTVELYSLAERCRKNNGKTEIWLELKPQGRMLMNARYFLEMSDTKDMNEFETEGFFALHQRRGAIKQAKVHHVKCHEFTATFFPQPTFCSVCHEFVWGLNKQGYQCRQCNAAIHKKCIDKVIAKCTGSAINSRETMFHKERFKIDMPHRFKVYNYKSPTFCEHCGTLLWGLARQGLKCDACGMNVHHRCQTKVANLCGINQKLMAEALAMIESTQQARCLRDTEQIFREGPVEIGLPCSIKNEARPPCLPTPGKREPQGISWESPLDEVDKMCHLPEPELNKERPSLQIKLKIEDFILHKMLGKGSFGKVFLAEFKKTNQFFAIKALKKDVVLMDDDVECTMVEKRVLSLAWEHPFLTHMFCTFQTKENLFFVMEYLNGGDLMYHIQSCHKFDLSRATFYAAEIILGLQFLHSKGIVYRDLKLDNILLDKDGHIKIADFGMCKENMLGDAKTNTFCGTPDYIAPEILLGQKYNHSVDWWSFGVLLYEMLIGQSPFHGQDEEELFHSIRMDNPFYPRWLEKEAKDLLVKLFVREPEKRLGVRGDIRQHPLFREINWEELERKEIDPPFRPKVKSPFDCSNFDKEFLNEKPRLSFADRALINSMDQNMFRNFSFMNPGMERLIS

As to `COc1ccc(-n2c(SCc3nc(-c4ccc(C)cc4)no3)nnc2-c2ccncc2)cc1` [Compound 1], the pIC50 is 6.00 in test [1] and roughly 4.94 in test [3]. For the same compound, the “effect against the TNF-α pathway” value in test [2] is “no substantial activating or inhibitory effect”. Further, the activity at 10 µM in test [4] is 101%; in test [5] it was 100%; in test [6], 109%.
